Results from patent US8436039B2, “Inhibitors of the ATB(0,+) transporter and uses thereof” (Georgia Health Sciences University Research Institute, Inc., priority 2008, dated 2013).
Where “and” joins values, the source holds several entries; their conditions need not be identical. Identical values can stand only once.

Target: T1, human ATB^0,+ (Homo sapiens, UniProt Q9UN76)
T1 construct: The human ATB^0,+ cDNA was cloned from an MCF7 cell (a human mammary epithelial cancer cell line) cDNA library; expressed in transfected cells; host or cells: Xenopus laevis oocytes injected with 50 ng capped cRNA
T1 sequence (Q9UN76 1-642): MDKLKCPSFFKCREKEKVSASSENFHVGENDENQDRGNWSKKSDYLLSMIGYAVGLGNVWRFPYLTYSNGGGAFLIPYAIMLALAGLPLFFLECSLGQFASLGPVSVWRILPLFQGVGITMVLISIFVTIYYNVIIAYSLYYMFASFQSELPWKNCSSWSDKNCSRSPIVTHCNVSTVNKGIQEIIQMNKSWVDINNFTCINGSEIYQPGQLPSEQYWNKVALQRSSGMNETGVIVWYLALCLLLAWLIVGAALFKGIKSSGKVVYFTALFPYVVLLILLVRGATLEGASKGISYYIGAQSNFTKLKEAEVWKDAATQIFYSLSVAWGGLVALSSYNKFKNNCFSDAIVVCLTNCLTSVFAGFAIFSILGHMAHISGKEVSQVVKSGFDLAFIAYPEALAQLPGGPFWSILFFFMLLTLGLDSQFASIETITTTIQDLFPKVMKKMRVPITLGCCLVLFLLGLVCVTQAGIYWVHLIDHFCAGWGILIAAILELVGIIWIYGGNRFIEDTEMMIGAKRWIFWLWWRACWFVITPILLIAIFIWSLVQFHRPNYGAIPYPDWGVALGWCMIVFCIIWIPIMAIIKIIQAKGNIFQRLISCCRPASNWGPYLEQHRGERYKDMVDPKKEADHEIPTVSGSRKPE
Assay: Block of inward currents induced by amino acid mixture simulating plasma in X. laevis oocytes expressing human ATB^0,+
Assay type: cell-based
Procedure: Capped cRNA from the cloned mouse or human ATB^0,+ cDNA was synthesized using the mMESSAGE mMACHTNE kit (Ambion, Austin, Tex., U.S.A.). Mature oocytes (stage IV or V) from X. laevis were injected with 50 ng of cRNA. Uninjected oocytes served as controls. The oocytes were used for electrophysiological studies 3-6 days after cRNA injection. Electrophysiological studies were performed by the two-microelectrode voltage-clamp method (Nakanishi et al., 2001, J. Physiol. 532, 297-304). Oocytes were superfused with an NaCl-containing buffer (100 mM NaCl, 2 mM KCl, 1 mM MgCl2, 1 mM CaCl2, 3 mM Hepes, 3 mM Mes and 3 mM Tris, pH 7.5), followed by the same buffer containing tryptophan derivatives. The membrane potential was clamped at −50 mV. The differences between the steady-state currents measured in the presence and absence of substrates were considered as the substrate-induced currents. In the analysis of the saturation kinetics of substrate-induced currents, the kinetic parameter K0.5 (i.e. substrate concentration necessary for induction of half-maximal current) was calculated by fitting the values of the substrate-induced currents to the Michaelis-Menten equation. The Na^+ and Cl^− activation kinetics of substrate-induced currents were analysed by measuring the substrate-specific currents in the presence of increasing concentrations of Na^+ (concentration of Cl^− kept constant at 100 mM) or in the presence of increasing concentrations of Cl^− (concentration of Na^+ kept constant at 100 mM). In these experiments, the composition of the superfusion buffer was modified to contain 2 mM potassium gluconate, 1 mM MgSO4 and 1 mM calcium gluconate in place of KCl, MgCl2 and CaCl2 respectively. The data from these experiments were analysed by the Hill equation to determine the Hill coefficient (h; number of Na^+ and Cl^− ions involved in the activation process). The kinetic parameters were determined by using the commercially available computer program Sigma Plot, version 6.0 (SPSS, Chicago, Ill., U.S.A.). Uninjected oocytes were used to determine the currents induced by tryptophan derivatives due to entry via transporters that may be constitutively expressed in the oocytes. At a concentration of 2.5 mM, the currents induced by these compounds were in the range of 0-3 nA in uninjected oocytes. These currents were less than 2% of the corresponding currents induced in ATB^0,+ cRNA-injected oocytes. Therefore the endogenous currents associated with the constitutively expressed transporters were not considered in the analysis of kinetic parameters of ATB^0,+ transport activity.
These studies with α-methyl-DL-tryptophan as a blocker of ATB^0,+ were carried out with L-tryptophan at sub-saturating concentrations. […] Therefore, using the Xenopus oocyte heterologous expression system, we monitored the transport activity of human ATB^0,+ in the presence of an amino acid mixture consisting of 18 different amino acids, each at its respective physiological concentration found in plasma (Glew et al., 2004, Clin. Chim. Acta 342, 179-185) (Table 1). Inward currents were detected under these conditions in oocytes expressing human ATB^0,+. […] We then monitored the ability of α-methyl-DL-tryptophan to block the inward currents induced by the same mixture of amino acids in oocytes expressing human ATB^0,+ (FIG. 4B). […]

With `CC(N)(Cc1c[nH]c2ccccc12)C(=O)O` (racemic) [α-methyl-DL-tryptophan] the inhibition at 2500 µM (2.5 mM, 18 amino acids at plasma concentrations, read-out: maximal inhibition of amino acid mixture-induced currents) was ~85% and the IC50 (18 amino acids at normal plasma concentrations, read-out: concentration necessary to elicit 50% of maximal inhibition (IC50) of amino acid mixture-induced currents) was ~250 µM and 255 µM.
